In article PMC6201908, “Affinity, potency, efficacy, and selectivity of neurokinin A analogs at human recombinant NK2 and NK1 receptors” (PLoS ONE, 2018):
Read-outs that look alike come from different tables or passages of the source. Non-standard residues stand in square brackets, D forms with d. Residues, ends and D or L forms follow the SMILES beside them. NMeL = CN[C@@H](CC(C)C)C(=O)O; Nle = CCCC[C@H](N)C(=O)O; βAla = NCCC(=O)O

Assays:
[1] = target: T1, human recombinant NK1 receptors (Homo sapiens, UniProt P25103); assay: cell-based
T1 sequence (P25103 whole entry): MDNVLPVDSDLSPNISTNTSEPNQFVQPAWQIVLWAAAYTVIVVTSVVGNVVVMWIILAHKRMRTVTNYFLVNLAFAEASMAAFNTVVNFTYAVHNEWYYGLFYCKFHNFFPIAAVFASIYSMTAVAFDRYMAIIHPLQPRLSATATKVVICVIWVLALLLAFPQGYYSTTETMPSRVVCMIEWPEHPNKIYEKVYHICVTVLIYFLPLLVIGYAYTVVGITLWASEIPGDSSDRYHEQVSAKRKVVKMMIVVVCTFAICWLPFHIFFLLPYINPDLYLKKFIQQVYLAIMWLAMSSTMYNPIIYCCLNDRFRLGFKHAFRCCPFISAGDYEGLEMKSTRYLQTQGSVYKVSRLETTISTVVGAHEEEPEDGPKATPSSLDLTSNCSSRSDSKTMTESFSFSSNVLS
Description: (§1) Human recombinant NK2 and NK1 receptors were generated using stably transfected CHO cells (CHO-hNK2 and CHO-hNK1, respectively). Human NK2 or NK1 receptor expressing vectors from Genecopeia (Rockville, USA) were transfected in CHO cells using the standard FuGENE protocol and cells were selected using 450 μg/mL geneticin (G418). Clones expressing the receptors were selected by functional coupling to calcium using FLIPR and a single clone for each receptor subtype was selected for expansion and stable cell line generation. Cells were cultured in a humidified incubator with 5% CO2 in F12K medium containing 10% heat inactivated FBS and 450 μg/mL geneticin and passaged on reaching 80–90% confluence.
(§2) The agonist efficacy of the test compounds at recombinant human NK1 or NK2 receptors expressed in CHO cells was assessed by measuring the intracellular calcium response using the calcium-sensitive dye Fluo-4 AM (Eugene, OR, USA) and a Fluorometric Imaging Plate Reader (FLIPR, Molecular Devices, CA, USA). CHO-hNK1 and CHO-hNK2 cells were seeded into black walled clear-bottom 384-well plates at a density of 10,000 and 15,000 cells per well in 50 μL culture media, respectively, and grown overnight at 37°C in a humidified CO2-incubator. Cells were washed in washing buffer using an EMBLA 384 plate washer, leaving 20 μL of buffer per well after the final aspiration. Cells were then incubated at 37°C with the cytoplasmic Ca^2+ indicator Fluo-4 AM (final concentration 1 μM) in assay buffer (20 mM HEPES, 145 mM NaCl, 5 mM KCl, 5.5 mM glucose, 1 mM MgCl2 and 2 mM CaCl2, pH 7.4, 0.05% Pluronic F-127 and 0.1% BSA) containing 2.5 mM probenecid for 45–60 min (cell loading). Cells were then washed 3 times in washing buffer (20 mM HEPES, 145 mM NaCl, 5 mM KCl, 5.5 mM glucose, 1 mM MgCl2 and 2 mM CaCl2, pH 7.4 and 2.5 mM probenecid) using an EMBLA 384 plate washer, leaving 30 μL of buffer in each well after the last wash. Loaded cell plates were transferred to the FLIPR and calcium responses were monitored as described below. […] Concentration response curves of test compounds were generated in duplicate on at least two different occasions from the same stock solutions. Test solutions were prepared from 10 mM stock solutions in DMSO and 1 μL of each solution was stamped into V-bottom assay plates containing 49 μL assay buffer. The final concentration of DMSO was 0.5% in each well.

[2] = target: T2, human recombinant NK2 receptors (Homo sapiens, UniProt P21452); assay: cell-based
T2 sequence (P21452 1-398): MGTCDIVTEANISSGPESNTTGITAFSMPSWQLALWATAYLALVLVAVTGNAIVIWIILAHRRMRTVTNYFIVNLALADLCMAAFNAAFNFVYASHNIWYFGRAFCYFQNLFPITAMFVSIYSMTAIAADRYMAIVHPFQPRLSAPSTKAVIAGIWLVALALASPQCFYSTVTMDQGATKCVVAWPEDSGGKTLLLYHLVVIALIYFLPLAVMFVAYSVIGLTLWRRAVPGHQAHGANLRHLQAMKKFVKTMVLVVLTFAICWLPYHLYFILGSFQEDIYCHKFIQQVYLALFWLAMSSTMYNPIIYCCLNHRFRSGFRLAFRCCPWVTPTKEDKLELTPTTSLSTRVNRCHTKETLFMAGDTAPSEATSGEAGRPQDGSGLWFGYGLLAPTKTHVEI
Description: as §1, §2

[3] = target: T2, human recombinant NK2 receptors; assay: Displacement of [^125I]-NKA binding to CHO-hNK2 membranes
[4] = target: T1, human recombinant NK1 receptors; assay: Displacement of [^3H]-Septide binding to CHO-hNK1 membranes (septide site)
Description: Protein expression was induced by addition of 5 mM sodium butyrate to the culture medium. […] The cell suspension was collected, placed on ice and centrifuged for 5 min at 4°C and 1200 rpm in a Beckman GS6R centrifuge. After removal of the supernatant the cell pellet was washed and collected by re-suspension in PBS and centrifugation. The final pellet was weighed and frozen at -80°C until use. Frozen pellets were thawed and homogenized in 10 volumes (w/v) of membrane preparation buffer (50 mM HEPES pH 7.4, 1 mM EDTA, 50 μg/mL bacitracin and protease inhibitors) using a Polytron Ultraturrax (twice for 15 s per cycle). The homogenate was centrifuged for 20 min at 4°C and 18500 rpm in a SL-50T Sorvall rotor and the pellet was re-suspended in membrane preparation buffer and re-homogenized as before. After centrifugation for 20 min at 4°C and 18500 rpm, the pellets were re-suspended in 5 volumes of membrane preparation buffer and divided into aliquots before freezing at -80°C. Protein concentration was determined using BioRad Protein Assay (Milan, Italy) with a BSA standard curve. Stock solutions of test compounds (10 mM) were prepared in DMSO and stored at -20°C until use. […] The goodness of fit between One-Site and Two-Site models was examined using Akaike's Information Corrected Criteria (AICC; [23]) in SAS v9.4 (SAS Institute, Cary NC) in order to select the best model for the data generated. […] Data from displacement experiments were plotted as the log [inhibitor concentration] (X axis) versus response expressed as TB in cpm (Y axis).

[5] = Intracellular Ca^2+ pEC50, CHO-hNK1 cells, mean ± SD
[6] = NK1 EC50 intracellular calcium response, CHO-hNK1 cells
[7] = Intracellular Ca^2+ pEC50, CHO-hNK2 cells, mean ± SD
[8] = NK2 EC50 intracellular calcium response, CHO-hNK2 cells

Compound	Intracellular Ca^2+ % Max [1] [%]	EC50 [1, 5] [nM]	EC50 [1, 6] [nM]	Intracellular Ca^2+ % Max [2] [%]	EC50 [2, 7] [nM]	EC50 [2, 8] [nM]	other results
CCCC[C@H](NC(=O)[C@H](CC(C)C)NC(=O)CCNC(=O)[C@@H](NC(=O)[C@H](Cc1ccccc1)NC(=O)[C@H](CCCNC(=N)N)NC(=O)[C@@H](N)CC(=O)O)C(C)C)C(N)=O [[Arg^5,β-Ala^8,Nle^10]-NKA(4–10), Asp-Arg-Phe-Val-[β-Ala]-Leu-Nle-NH2] (H-DRFV[βAla]L[Nle]-NH2)	104.9 ± 13.2	29.5	29.5	81.4 ± 1.2	1.15	1.16	
CCCC[C@H](NC(=O)[C@H](CC(C)C)NC(=O)CNC(=O)[C@@H](NC(=O)[C@H](Cc1ccccc1)NC(=O)[C@H](CCCCN)NC(=O)[C@@H](N)CC(=O)O)C(C)C)C(N)=O [[Lys^5,Nle^10]-NKA(4–10), Asp-Lys-Phe-Val-Gly-Leu-Nle-NH2]		2.34	2.36		0.38	0.38	
CSCC[C@H](NC(=O)[C@H](CC(C)C)NC(=O)CNC(=O)[C@@H](NC(=O)[C@H](Cc1ccccc1)NC(=O)[C@H](CCCNC(=N)N)NC(=O)[C@@H](N)CC(=O)O)C(C)C)C(N)=O [[Arg^5]-NKA(4–10), Asp-Arg-Phe-Val-Gly-Leu-Met-NH2] (H-DRFVGLM-NH2)		0.155	0.16		0.191	0.19	
CSCC[C@H](NC(=O)[C@H](CC(C)C)NC(=O)CCNC(=O)[C@@H](NC(=O)[C@H](Cc1ccccc1)NC(=O)[C@H](CCCNC(=N)N)NC(=O)[C@@H](N)CC(=O)O)C(C)C)C(N)=O [[Arg^5,β-Ala^8]-NKA(4–10), Asp-Arg-Phe-Val-[β-Ala]-Leu-Met-NH2] (H-DRFV[βAla]LM-NH2)	101.5 ± 18.4	1.82	1.83	106.9 ± 8.9	0.151	0.15	
CSCC[C@H](NC(=O)[C@H](CC(C)C)NC(=O)CNC(=O)[C@@H](NC(=O)[C@H](Cc1ccccc1)NC(=O)[C@H](CO)NC(=O)[C@@H](N)CC(=O)O)C(C)C)C(N)=O [NKA(4–10), Asp-Ser-Phe-Val-Gly-Leu-Met-NH2]	117.4 ± 12.8				1.02	1.02	Ki ([3]; [^125I]-NKA binding pKi): 2.34 nM
CCCC[C@H](NC(=O)[C@H](CC(C)C)N(C)C(=O)CNC(=O)[C@@H](NC(=O)[C@H](Cc1ccccc1)NC(=O)[C@H](CCCNC(=N)N)NC(=O)[C@@H](N)CC(=O)O)C(C)C)C(N)=O [[Arg^5,MeLeu^9,Nle^10]-NKA(4-10), Asp-Arg-Phe-Val-Gly-(NMe-Leu)-Nle-NH2] (H-DRFVG[NMeL][Nle]-NH2; N-terminus assumed)					0.0832		[^125I]-NKA binding pKi ([3]; 0.1 nM [^125I]-NKA, CHO-hNK2 membranes 6 μg/well, 23°C, 3 h, mean ± SD): 9.23 ± 0.19; [^125I]-NKA binding Slope ([3]; Hill slope of displacement curve, 0.1 nM [^125I]-NKA, 23°C, 3 h, mean ± SD): -0.86 ± 0.09; NK1/NK2 ratio of Ki values ([3]; NK1 [^3H]-Septide Ki / NK2 [^125I]-NKA Ki): 561; Fold more selective for NK2 over septide site of NK1 receptor compared with NKA (binding) ([3]; from Ki ratios): more than 28 fold; [^3H]-Septide binding pKi ([4]; 5.0 nM [^3H]-Septide, CHO-hNK1 membranes 20 μg/well, 23°C, 1 h, mean ± SD): 6.48 ± 0.05; [^3H]-Septide binding Slope ([4]; Hill slope of displacement curve, 5.0 nM [^3H]-Septide, 23°C, 1 h, mean ± SD): -0.89 ± 0.13; Ki ([4]; displacement of [^3H]-Septide binding, read-out: NK1 [^3H]-Septide Ki): 331 nM; Intracellular Ca^2+ % Max ([1]; CHO-hNK1 cells, % of maximal response observed with substance P, mean ± SD): 100.4 ± 1.5%; Intracellular Ca^2+ pEC50 ([1]; CHO-hNK1 cells, mean ± SD): 8.23 ± 0.32; Difference between pEC50 and pKi values ([1]; NK1 receptors, calcium response vs [^3H]-Septide binding): 56 fold; Intracellular Ca^2+ % Max ([2]; CHO-hNK2 cells, % of maximal response observed with NKA, mean ± SD): 89.0 ± 15.5%; NK1/NK2 ratio of EC50s for intracellular calcium response ([2]; NK1 EC50 / NK2 EC50): 70
CSCC[C@H](NC(=O)[C@H](CC(C)C)NC(=O)CCNC(=O)[C@@H](NC(=O)[C@H](Cc1ccccc1)NC(=O)[C@H](CCCCN)NC(=O)[C@@H](N)CC(=O)O)C(C)C)C(N)=O [[Lys^5,β-Ala^8]-NKA(4–10), Asp-Lys-Phe-Val-[β-Ala]-Leu-Met-NH2] (H-DKFV[βAla]LM-NH2)	105.8 ± 3.4	6.31	6.31	92.0 ± 3.8	0.174	0.18	
CCCC[C@H](NC(=O)[C@H](CC(C)C)NC(=O)CNC(=O)[C@@H](NC(=O)[C@H](Cc1ccccc1)NC(=O)[C@H](CCCNC(=N)N)NC(=O)[C@@H](N)CC(=O)O)C(C)C)C(N)=O [[Arg^5,Nle^10]-NKA(4–10), Asp-Arg-Phe-Val-Gly-Leu-Nle-NH2] (H-DRFVGL[Nle]-NH2)		1.7	1.71		0.2	0.2	
CSCC[C@H](NC(=O)[C@H](CC(C)C)NC(=O)CNC(=O)[C@@H](NC(=O)[C@H](Cc1ccccc1)NC(=O)[C@H](CCCCN)NC(=O)[C@@H](N)CC(=O)O)C(C)C)C(N)=O [[Lys^5]-NKA(4–10), Asp-Lys-Phe-Val-Gly-Leu-Met-NH2]		0.417	0.41		0.0891	0.09	
CCCC[C@H](NC(=O)[C@H](CC(C)C)NC(=O)CCNC(=O)[C@@H](NC(=O)[C@H](Cc1ccccc1)NC(=O)[C@H](CCCCN)NC(=O)[C@@H](N)CC(=O)O)C(C)C)C(N)=O [[Lys^5,β-Ala^8,Nle^10]-NKA(4–10), Asp-Lys-Phe-Val-[β-Ala]-Leu-Nle-NH2] (H-DKFV[βAla]L[Nle]-NH2)	107.0 ± 14.0	77.6	78.2	83.1 ± 25.5	3.02	3	
